Results reported in the supplement of paper PMC10331698.
± gives the standard deviation of the averaged measurements.

Tests used:
Assay in all cases: level (log10 ratio to DMSO vehicle control); higher = higher biomarker level / cell amount than vehicle control
Details in all cases: in DMSO
[1] = compound: CNS(=O)(=O)C(F)(F)C(F)(F)C(F)(F)C(F)(F)C(F)(F)C(F)(F)C(F)(F)C(F)(F)F [N-Methylperfluorooctanesulfonamide]
Experimental: (§1)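 BioMAP Diversity Plus panel of 12 human primary cell co-culture systems (3C, 4H, LPS, SAg, BT, BF4T, BE3C, CASM3C, HDF3CGF, KF3CT, MyoF, Mphg). Compounds were added 1 h before stimulation and left for 24 h (MyoF 48 h; BT 72 h for soluble read-outs or 6 d for IgG). Biomarkers were read by ELISA, cytotoxicity by SRB, PBMC viability and proliferation by Alamar Blue. Each well value was divided by the mean of 8 DMSO control wells on the same plate and log10 transformed; duplicate blinded samples were tested at 4 concentrations.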

[2] = compound: O=C(O)C(F)(F)C(F)(F)C(F)(F)C(F)(F)C(F)(F)C(F)(F)C(F)(F)C(F)(F)Cl [9-Chloro-perfluorononanoic acid]
Experimental: as §1

Perfluorohexanoic acid = compound: O=C(O)C(F)(F)C(F)(F)C(F)(F)C(F)(F)C(F)(F)F [Perfluorohexanoic acid]
Experimental: as §1

[3] = compound: O=C(O)C(F)(F)OC(F)(F)C(F)(F)OC(F)(F)C(F)(F)C(F)(F)C(F)(F)F [Perfluoro-3,6-dioxadecanoic acid]
Experimental: as §1

[4] = compound: O=P(O)(O)CCC(F)(F)C(F)(F)C(F)(F)C(F)(F)C(F)(F)C(F)(F)C(F)(F)C(F)(F)F [((Perfluorooctyl)ethyl)phosphonic acid]
Experimental: as §1

[5] = compound: O=S(=O)(O)C(F)(F)C(F)(F)C(F)(F)C(F)(F)C(F)(F)C(F)(F)C(F)(F)C(F)(F)F [Potassium perfluorooctanesulfonate]
Experimental: as §1

1H,1H-Heptafluorobutanol = compound: OCC(F)(F)C(F)(F)C(F)(F)F [1H,1H-Heptafluorobutanol]
Experimental: as §1

Row | Test System | level (log10) ([1]; 6700 nM) | level (log10) ([1]; 20000 nM) | level (log10) ([1]; 60000 nM) | level (log10) ([2]; 6700 nM) | level (log10) ([2]; 20000 nM) | level (log10) (Perfluorohexanoic acid; 6700 nM) | level (log10) (Perfluorohexanoic acid; 20000 nM) | level (log10) (Perfluorohexanoic acid; 60000 nM) | level (log10) ([3]; 6700 nM) | level (log10) ([3]; 20000 nM) | level (log10) ([3]; 60000 nM) | level (log10) ([4]; 6700 nM) | level (log10) ([4]; 20000 nM) | level (log10) ([4]; 60000 nM) | level (log10) ([5]; 6700 nM) | level (log10) ([5]; 20000 nM) | level (log10) ([5]; 60000 nM) | level (log10) (1H,1H-Heptafluorobutanol; 6700 nM) | level (log10) (1H,1H-Heptafluorobutanol; 20000 nM) | level (log10) (1H,1H-Heptafluorobutanol; 60000 nM)
1 | 3C:CCL2/MCP-1 | 0.0175 ± 0.0021 | 0.0235 ± 0.028 | 0.031 ± 0.034 | 0.015 ± 0.054 | -0.0065 ± 0.037 | -0.006 ± 0.0028 | -0.0145 ± 0.005 | 0.0115 ± 0.022 | 0.002 ± 0.0099 | 0.013 ± 0.0057 | 0.0195 ± 0.023 | 0.0005 ± 0.0092 | -0.0115 ± 0.0078 | -0.0085 ± 0.06 | -0.056 ± 0.098 | -0.0125 ± 0.0035 | 0.009 ± 0.02 | -0.001 | -0.0055 ± 0.012 | 0.007 ± 0.028
2 | 3C:CD54/ICAM-1 | -0.0265 ± 0.022 | 0.103 ± 0.026 | 0.043 ± 0.0014 | -0.0075 ± 0.0092 | -0.0085 ± 0.019 | 0.005 ± 0.013 | -0.0045 ± 0.016 | -0.0005 ± 0.019 | -0.003 ± 0.028 | -0.0025 ± 0.018 | 0.019 ± 0.011 | -0.012 ± 0.014 | -0.0185 ± 0.012 | -0.021 ± 0.0085 | -0.001 ± 0.0071 | 0.0235 ± 0.005 | 0.046 ± 0.0071 | 0.0095 ± 0.0064 | 0.003 ± 0.0085 | 0.0075 ± 0.0064
3 | 3C:CD62E/E-Selectin | -0.011 ± 0.025 | 0.01 ± 0.023 | -0.072 ± 0.011 | -0.005 ± 0.0057 | 0.001 ± 0.017 | -0.0065 ± 0.0092 | -0.007 ± 0.011 | 0.0145 ± 0.029 | 0.0155 ± 0.043 | -0.001 ± 0.037 | 0.004 ± 0.052 | -0.011 ± 0.025 | -0.032 ± 0.021 | -0.056 ± 0.011 | -0.0025 ± 0.015 | 0.0195 ± 0.046 | 0.063 ± 0.035 | -0.006 ± 0.0028 | -0.0025 ± 0.0035 | 0.015 ± 0.016
4 | 3C:CD106/VCAM-1 | -0.03 ± 0.038 | 0.049 ± 0.024 | -0.0295 ± 0.012 | -0.005 ± 0.0014 | -0.001 ± 0.021 | -0.002 ± 0.018 | -0.0025 ± 0.029 | 0.005 ± 0.044 | 0.0005 ± 0.013 | -0.0035 ± 0.019 | -0.0135 ± 0.021 | -0.0115 ± 0.016 | -0.0345 ± 0.005 | -0.054 ± 0.0042 | 0.001 ± 0.016 | 0.013 ± 0.023 | 0.0375 ± 0.037 | 0.008 ± 0.033 | 0.018 ± 0.025 | 0.001 ± 0.037
5 | 3C:CD141/Thrombomodulin | -0.002 ± 0.0085 | -0.009 ± 0.018 | -0.0345 ± 0.013 | -0.017 ± 0.016 | -0.008 ± 0.02 | -0.0205 ± 0.005 | -0.022 ± 0.027 | -0.006 | -0.014 ± 0.048 | -0.0345 ± 0.039 | -0.016 ± 0.04 | -0.0115 ± 0.00071 | -0.0115 ± 0.0078 | 0.013 ± 0.016 | 0.007 ± 0.018 | -0.0055 ± 0.033 | 0.041 ± 0.0071 | -0.0025 ± 0.018 | -0.005 ± 0.0042 | 0.0195 ± 0.005
6 | 3C:CD142/Tissue Factor | -0.128 ± 0.0057 | -0.108 ± 0.031 | -0.106 ± 0.012 | -0.008 ± 0.057 | 0.025 ± 0.0057 | 0.011 ± 0.0085 | -0.0135 ± 0.0092 | 0.0005 ± 0.012 | -0.0245 ± 0.059 | 0.0095 ± 0.015 | -0.074 ± 0.024 | 0.025 ± 0.03 | 0.0455 ± 0.015 | 0.101 ± 0.023 | -0.018 ± 0.024 | -0.0065 ± 0.04 | 0.049 ± 0.02 | -0.0065 ± 0.021 | 0.0105 ± 0.015 | 0.026 ± 0.025
7 | BE3C:Keratin 8/18 | -0.0025 ± 0.012 | -0.0135 ± 0.0078 | -0.0055 ± 0.023 | -0.0025 ± 0.015 | 0.0095 ± 0.0092 | -0.017 ± 0.0057 | -0.0125 ± 0.0035 | -0.0175 ± 0.021 | -0.0075 ± 0.013 | -0.0135 ± 0.026 | 0.027 ± 0.0042 | -0.015 ± 0.011 | -0.012 ± 0.0028 | -0.006 ± 0.021 | 0.0225 ± 0.00071 | 0.013 ± 0.0085 | -0.0155 ± 0.019 | -0.023 ± 0.041 | 0.0035 ± 0.019 | -0.009 ± 0.037
8 | BE3C:MMP-1 | 0.0895 ± 0.03 | 0.0995 ± 0.025 | 0.001 ± 0.054 | 0.083 ± 0.024 | 0.277 ± 0.0064 | -0.0075 ± 0.0064 | 0 ± 0.011 | 0.0275 ± 0.012 | 0.067 ± 0.0014 | 0.172 ± 0.0035 | 0.355 ± 0.021 | 0.0705 ± 0.011 | 0.111 ± 0.018 | 0.125 ± 0.061 | 0.182 ± 0.038 | 0.157 ± 0.021 | 0.198 ± 0.012 | 0.0035 ± 0.0078 | -0.015 ± 0.02 | 0.0025 ± 0.028
9 | BE3C:MMP-9 | -0.094 ± 0.0014 | -0.11 ± 0.0057 | -0.102 ± 0.0064 | 0.001 ± 0.014 | -0.04 ± 0.014 | -0.0155 ± 0.018 | -0.005 ± 0.0071 | 0.0145 ± 0.013 | -0.005 ± 0.0099 | 0.007 ± 0.031 | -0.0195 ± 0.0021 | -0.0155 ± 0.026 | -0.006 ± 0.044 | 0.014 ± 0.016 | -0.0035 ± 0.012 | -0.13 ± 0.013 | -0.126 ± 0.024 | 0.002 ± 0.0042 | 0.0015 ± 0.0064 | 0.0175 ± 0.033
10 | BE3C:PAI-I | -0.157 ± 0.013 | -0.162 ± 0.029 | -0.138 ± 0.025 | 0.0005 ± 0.0035 | -0.215 ± 0.017 | -0.019 ± 0.018 | -0.029 ± 0.011 | 0.0065 ± 0.022 | 0.0345 ± 0.021 | 0.009 ± 0.031 | -0.11 ± 0.005 | 0.015 ± 0.0014 | -0.0115 ± 0.011 | -0.032 ± 0.0042 | -0.0115 ± 0.012 | -0.255 ± 0.03 | -0.253 ± 0.037 | -0.0285 ± 0.0078 | -0.0185 ± 0.03 | -0.0115 ± 0.0035
11 | BE3C:SRB | -0.0085 ± 0.00071 | -0.014 ± 0.0085 | 0.0005 ± 0.029 | -0.0045 ± 0.0064 | -0.0805 ± 0.005 | -0.001 | -0.006 ± 0.0014 | 0.009 ± 0.018 | -0.0015 ± 0.0064 | -0.0095 ± 0.013 | -0.0435 ± 0.022 | -0.004 | -0.011 ± 0.0085 | 0.0015 ± 0.015 | -0.0075 ± 0.0021 | -0.245 ± 0.034 | -0.306 ± 0.033 | -0.0115 ± 0.0078 | -0.0045 ± 0.011 | -0.0005 ± 0.0064
12 | BE3C:tPA | 0.186 ± 0.0057 | 0.192 ± 0.0099 | 0.176 ± 0.005 | 0.0195 ± 0.023 | -0.0985 ± 0.023 | -0.032 ± 0.054 | -0.0405 ± 0.016 | -0.046 ± 0.018 | -0.0345 ± 0.029 | -0.09 ± 0.04 | -0.156 ± 0.018 | 0.123 ± 0.005 | 0.191 ± 0.0014 | 0.202 ± 0.032 | 0.115 ± 0.0035 | -0.101 ± 0.027 | -0.165 ± 0.03 | -0.019 ± 0.021 | -0.0125 ± 0.061 | 0.0005 ± 0.005
13 | BE3C:uPA | 0.008 ± 0.0085 | 0.0065 ± 0.0064 | 0.003 ± 0.0014 | 0.0035 ± 0.011 | -0.0125 ± 0.011 | -0.03 ± 0.013 | -0.01 ± 0.018 | 0.0025 ± 0.016 | 0.006 ± 0.025 | -0.0045 ± 0.025 | -0.003 ± 0.011 | 0.014 ± 0.0014 | 0.022 ± 0.0014 | 0.023 ± 0.0014 | 0.0125 ± 0.0092 | -0.028 ± 0.0099 | -0.036 ± 0.016 | -0.0035 ± 0.005 | 0.015 ± 0.011 | 0.002 ± 0.0028
14 | CASM3C:CCL2/MCP-1 | 0.0095 ± 0.022 | 0.0295 ± 0.012 | 0.0645 ± 0.039 | -0.0085 ± 0.011 | -0.011 ± 0.0028 | -0.014 ± 0.0042 | 0.0025 ± 0.021 | 0.008 ± 0.027 | -0.012 ± 0.0085 | -0.0175 ± 0.013 | 0.043 ± 0.069 | -0.007 ± 0.0071 | -0.0085 ± 0.013 | 0.012 ± 0.058 | 0.001 ± 0.024 | 0.01 ± 0.0057 | 0.0405 ± 0.021 | 0.006 ± 0.0099 | 0.006 ± 0.0057 | 0.0095 ± 0.026
